A short description of this series: method code SF-AS, from DOI: 10.1021/jm00294a001, PMID: 5116225.
For the compound `C=C1C(=O)OC2C1C(O)CC(C)C1CCC(=O)C12C` (centres undefined), the logP (usually a log measure of how a compound divides between an organic and an aqueous phase) came out at 0.23.
Regarding `C=C1C(=O)OC2C=C(C)C3(O)C=CC(C)(CC(OC(=O)C(=CC)COC(C)=O)C12)O3` (centres undefined), the logP amounted to 1.19.
Compound `C=C(C)C(=O)O[C@H]1CC2=C[C@@H](C[C@@]3(C)O[C@@H]3[C@H]3OC(=O)C(=C)[C@@H]31)OC2=O` had a lipophilicity (logP) of 0.69.
To `C=C1C(=O)OC2C=C(C)C(OC(C)=O)CC(O)C(C)=CC(OC(=O)C(C)=CC)C12` (centres undefined) belongs 1.16; to `C=C1C(=O)OC2C=C(C)C3C(OC(C)=O)CC(O)C3CC12` (centres undefined), 1.09.
Next, `C=C1C(=O)O[C@@H]2[C@H]1CC[C@H](C)[C@]1(O)CCC(=O)[C@@]21C`: 0.83.
To `C=C1C(=O)OC2C1CCC(C)C1C=CC(=O)C12C` (centres undefined) belongs 1.03; to `C=CC12COC(=O)C(=C)C1C(OC(C)=O)C1C(=C)C(=O)OC1C2` (centres undefined), 0.25.
Regarding `C=C1C(=O)OC2C=C(C)C(O)CC=C(C)CCC12` (centres undefined), the logP came out at 1.4.
The compound `C=C1C(=O)OC2C1C(OC(=O)C(C)=CC)CC(=C)C1C(O)C3OC3(C)C21O` (centres undefined) yielded a logP of 1.69.
To `C=C1C(=O)O[C@H]2C[C@@H](C)[C@@H]3C=CC(=O)[C@@]3(C)C[C@H]12` belongs 1.17; to `C=CC12COC(=O)C(=C)C1C1OC(=O)C(=C)C1C(OC(C)=O)C2` (centres undefined), 0.79; to `C=C1C(=O)O[C@@H]2C[C@@H](C)[C@@H]3C=CC(=O)[C@@]3(C)[C@@H](O)[C@H]12`, 0.87.
Next, `C=C1C(=O)OC2C1CCC(C)C1(O)C=CC(=O)C21C` (centres undefined): 0.77; `C=C1C(=O)O[C@@H]2/C=C(/C)C[C@H](O)/C=C(/C)CC[C@@H]12`: 1.23; `C=C1C(=O)O[C@H]2[C@H]1[C@@H](OC(=O)C=C(C)C)CC1=C[C@@H](C[C@@]3(C)O[C@H]23)OC1=O`: 1.05.
To `C=C[C@@]12COC(=O)C(=C)[C@@H]1[C@H]1OC(=O)C(=C)[C@@H]1[C@@H](O)C2` belongs 0.31; to `C=C1C(=O)OC2CC(C)=CCC(OC(C)=O)C(C)=CC(OC(C)=O)C12` (centres undefined), 1.14.
`C=C1C(=O)O[C@H]2[C@H]1[C@H](OC(=O)/C(C)=C\C)C[C@]1(CO1)[C@@H]1[C@H](OC(C)=O)C=C(C)[C@]21O` had a log partition coefficient (logP) of 0.76.
Next, `C=C1C(=O)OC2C1C(OC(=O)C(C)=CC)CC(O)(CCl)C1C(OC(C)=O)C=C(C)C21O` (centres undefined): 1.42; `C=CC12COC(=O)C(=C)C1C(O)C1C(=C)C(=O)OC1C2` (centres undefined): -0.14; `C=C[C@@]12COC(=O)C(=C)[C@@H]1[C@H]1OC(=O)C(=C)[C@@H]1[C@@H](OC(=O)C(=C)C)C2`: 1.56.
Next, `C=C1C(=O)O[C@@H]2[C@H]1CC[C@H](C)[C@@H]1C[C@@H](O)C(=O)[C@@]21C`: 0.66; `C=C1C(=O)O[C@H]2CC3=C[C@@H](C[C@@]4(C)O[C@@H]4[C@@H](O)[C@H]12)OC3=O`: -0.64.

The record behind these values is the SangsterLogP compilation.
